# Measurements from ChEMBL document CHEMBL1135480, “Design and quantitative structure-activity relationship of 3-amidinobenzyl-1H-indole-2-carboxamides as potent, nonchiral, and selective inhibitors of blood coagulation factor Xa” (J Med Chem, 2002).
# Values joined by “and” are separate entries in the source; they are usually repeats but may differ in a detail not shown here. Equal values may be shown once.
# Biological target: Coagulation factor X (Homo sapiens, UniProt P00742)
# Test: Inhibition of Coagulation factor Xa
# Coagulation factor X, sequence (P00742 41-179 limits assumed): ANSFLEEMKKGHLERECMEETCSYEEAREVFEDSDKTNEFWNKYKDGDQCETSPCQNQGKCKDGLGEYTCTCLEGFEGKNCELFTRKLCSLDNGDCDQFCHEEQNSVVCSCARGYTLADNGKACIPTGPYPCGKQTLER
# Coagulation factor X, sequence (P00742 235-488 limits assumed): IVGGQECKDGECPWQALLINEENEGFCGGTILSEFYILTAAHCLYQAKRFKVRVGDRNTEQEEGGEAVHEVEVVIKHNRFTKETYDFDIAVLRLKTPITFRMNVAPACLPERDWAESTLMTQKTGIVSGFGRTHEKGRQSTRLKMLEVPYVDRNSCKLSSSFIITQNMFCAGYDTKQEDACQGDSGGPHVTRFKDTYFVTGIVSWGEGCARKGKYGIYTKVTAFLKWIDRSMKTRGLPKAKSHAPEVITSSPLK
row,Ki,SMILES
1,610 nM,CN1CCC([C@@H](NC(=O)c2cc3ccccc3n2Cc2cccc(C(=N)N)c2)c2ccc3cc(Cl)ccc3c2)CC1
2,318 nM,N=C(N)c1cccc(Cn2c(C(=O)NCCNc3cccc4ccccc34)cc3c(O)cccc32)c1
3,2040 nM,COC(=O)c1cccc(CNC(=O)c2cc3c(O)cccc3n2Cc2cccc(C(=N)N)c2)c1
4,44 nM,Cc1cccc2c1cc(C(=O)OCc1cccc(C(=N)N)c1)n2Cc1cccc(C(=N)N)c1
5,191 nM,N=C(N)c1cccc(Cn2c(C(=O)NCc3cc(F)cc(F)c3)cc3c(O)cccc32)c1
6,51 nM,N=C(N)c1cccc(CNC(=O)c2cc3cc(N)ccc3n2Cc2cccc(C(=N)N)c2)c1
7,2470 nM,CN(CCNC(=O)c1cc2c(O)cccc2n1Cc1cccc(C(=N)N)c1)c1cccc2ccccc12
8,325 nM,Cc1cccc2c1cc(C(=O)NCc1cccc(-c3ccccc3)c1)n2Cc1cccc(C(=N)N)c1
9,8800 nM,COC(=O)c1c(C)c2ccccc2n1Cc1cccc(C(=N)N)c1
10,60 nM,C[N+](C)(C)c1ccc(CNC(=O)c2cc3cc(N)ccc3n2Cc2cccc(C(=N)N)c2)cc1
11,150 nM,C[n+]1ccc(CNC(=O)c2cc3ccccc3n2Cc2cccc(C(=N)N)c2)cc1
12,103 nM,CC[N+](C)(C)c1ccc(CNC(=O)c2cc3cc(F)ccc3n2Cc2cccc(C(=N)N)c2)cc1
13,1760 nM,COc1ccc2cc(C(=O)NCc3ccc([N+](C)(C)C)cc3)n(Cc3cccc(C(=N)N)c3)c2c1
14,1300 nM,C[n+]1ccc(CCNC(=O)c2cc3ccccc3n2Cc2cccc(C(=N)N)c2)cc1
15,66 nM and 90 nM,C[N+](C)(C)c1ccc(CNC(=O)c2cc3cc(F)ccc3n2Cc2cccc(C(=N)N)c2)cc1
16,50 nM,C[n+]1ccc(CNC(=O)c2cc3c(O)cccc3n2Cc2cccc(C(=N)N)c2)c2ccccc21
17,226 nM,C[N+](C)(C)c1ccc(CNC(=O)c2cc3cc(S(C)(=O)=O)ccc3n2Cc2cccc(C(=N)N)c2)cc1
18,245 nM,Cc1c(F)ccc2c1cc(C(=O)NCc1ccc([N+](C)(C)Cc3ccccc3)cc1)n2Cc1cccc(C(=N)N)c1
19,134 nM,C[N+](C)(C)c1ccc(CNC(=O)c2cc3cc(Br)ccc3n2Cc2cccc(C(=N)N)c2)cc1

row,Ki,SMILES
1,600 nM,C[n+]1ccc(CNC(=O)c2cc3ccccc3n2Cc2ccc(C(=N)N)cc2)cc1
2,360 nM,C[n+]1ccc(CNC(=O)c2cc3cc(F)ccc3n2Cc2cccc(C(=N)N)c2)cc1
3,1610 nM,Cc1cccc2c1cc(C(=O)NCc1ccc(O)cc1)n2Cc1cccc(C(=N)N)c1
4,720 nM,N=C(N)c1cccc(Cn2c(C(=O)NCc3cccc(F)c3)cc3c(O)cccc32)c1
5,13 nM,Cc1cc(C)cc(CNC(=O)c2c(Br)c3ccccc3n2Cc2cccc(C(=N)N)c2)c1
6,3330 nM,N=C(N)c1cccc(Cn2c(C(=O)NCc3ccccn3)cc3c(O)cccc32)c1
7,1310 nM,Cc1cccc2c1cc(C(=O)NCc1ccc(N(C)C)cc1)n2Cc1cccc(C(=N)N)c1
8,1630 nM,N=C(N)c1cccc(Cn2c(C(=O)NCCc3ccc(Br)cc3)cc3c(O)cccc32)c1
9,476 nM,N=C(N)c1cccc(Cn2c(C(=O)NCc3cccc(C(F)(F)F)c3)cc3c(O)cccc32)c1
10,117 nM,N=C(N)c1cccc(Cn2c(C(=O)NCc3cccc(Br)c3)cc3c(O)cccc32)c1
11,61 nM,N=C(N)c1cccc(COC(=O)c2cc3cc(OCc4ccccc4)ccc3n2Cc2cccc(C(=N)N)c2)c1
12,14500 nM,Cc1cccc2c1cc(C(=O)NCc1cc[n+]([O-])cc1)n2Cc1cccc(C(=N)N)c1
13,10000 nM,N=C(N)c1cccc(Cn2c(C(=O)NCc3cccc(C(=O)O)c3)cc3c(O)cccc32)c1
14,96 nM,Cc1cccc2c1cc(C(=O)NCc1cccc3ccccc13)n2Cc1cccc(C(=N)N)c1
15,3600 nM,N=C(N)c1cccc(Cn2c(C(=O)NCc3ccc(Cl)cc3)cc3ccccc32)c1
16,970 nM,COc1cccc2c1cc(C(=O)NCCc1ccc(O)cc1)n2Cc1cccc(C(=N)N)c1
17,1560 nM,N=C(N)c1cccc(Cn2c(C(=O)NCCc3ccc(Cl)cc3)cc3c(O)cccc32)c1
18,85 nM,N=C(N)c1cccc(Cn2c(C(=O)NCc3cc(Cl)cc(Cl)c3)c(Br)c3ccccc32)c1
